Key:
Type in all cases: cell-based
[1] = tested on: actin cytoskeleton of PC-3, LNCaP and Ep156T spheroids; experiment: F-actin cytoskeleton (phalloidin staining) in 3D spheroids; settings: after 48 hours of exposure; seen in Ep156T acini and PC-3 spheroids, not LNCaP
Description: […] […] For phenotypic comparisons, we tested a panel of reference compounds targeting Akt, Rac, ROCK, Src, and other pathways, broadly linked to the actin cytoskeleton.
Fig 8 3D morphologies of prostate spheroids, exposed to selected betulin derivatives and captured with a confocal microscope. Actin cytoskeleton (filamentous or F-actin) is stained green (phalloidin), nuclei with a red dye (confocal microscope images, 40× objective, scale bar shown for each panel on the right lower corner).

[2] = tested on: LNCaP organoids; experiment: Secondary 3D screen (spheroid size, complexity, cell death); settings: dendrogram clusters
Description: (§1) Next, the 25 selected betulin derivatives depicted in Figs 1–3 including control compounds were again thoroughly tested across the same panel of prostate-derived cell lines already used in the preliminary, 2D high-throughput screen. The resulting dendrograms were either generated separately for each cell line (S4 Fig), combined into a single dendrogram (Fig 5A), or shown as reduced organoid sizes (area; Fig 5B).
(§2) Fig 5 Secondary 3D screens. Experimental betulin derivatives and control compounds were tested across a panel of prostate cancer lines (LNCaP, LAPC-4) and non-transformed, prostate epithelial cells (EP156T) in 3D culture. A) The dendrogram is based on three main morphological parameters and combines all data from primary and secondary 3D screens. […] B) Boxplots showing the impact of selected compounds on spheroid size (Area). Data scaling: as described in Fig 4 C) Effects of all betulin derivatives and control compounds on cell death (number of dead cells).
(§3) All 3D cultures were done in growth factor-free Matrigel Basement-membrane Matrix (Corning Inc., New York, NY, USA) using 96-well Angiogenesis μ-plates (ibidi GmbH, Munich, Germany) as described before.[38] “Sandwich” assays in short: bottom wells of cooled Angiogenesis plates were filled with 10 μL 4 mg/mL Matrigel, centrifuged for 20 min 200 g and incubated at 37°C temperature for approximately 30–60 min or until the ECM had polymerized. 1,000–1,500 cells were mixed in 2 mg/mL ECM-medium, and 20 μL of cell suspension was added in each well. The plates were centrifuged for 10 min at 100 g, or until the cells had settled on top of the lower ECM. Finally, the outer wells and side reservoirs were filled with water for humidification, and the culture plates placed into the incubator for 3–4 h or overnight. The following day, 60 μL of cell culture medium were added; refreshed every third day by carefully aspirating the medium. This “sandwich” setting allows almost unifocal alignment of cells and 3D structures in a single optical plane, thus reducing the time required for confocal stack imaging.
(§4) All control compounds were purchased from Selleck (Munich, Germany), except for staurosporine (Sigma-Aldrich, St. Louis, MO, USA) and Y-27632 (Tocris, Bristol, UK) and dissolved in dimethyl sulfoxide (DMSO) as a vehicle at 10 mM. In the primary and secondary 3D screens, experimental and control compound exposures were performed in triplicates. Four concentrations for each compound were applied (0.03, 0.1, 0.3 and 1 μM). Compound treatments were initiated four days after cell embedding, and continued for six days after which spheroids were stained and imaged.
(§5) Supplementary file pone.0126111.s004.eps: S4 Fig Secondary screens. Dendrograms for A) LNCaP, B) LAPC-4, and C) Ep156T betulin screens in 3D culture have been constructed using three main read-outs: spheroid size, spheroid complexity, and cell death. […] (EPS) Click here for additional data file.

[3] = tested on: LAPC-4; experiment: as above; settings: yellow and red clusters
Description: as §1, §2, §3, §4, §5

[4] = tested on: PC-3 cells; experiment: Primary 3D screen in Matrigel ECM, morphometric image analysis (AMIDA) of invasion, growth and cell death; settings: PC-3 in 3D Matrigel; for anti-invasive effects in 3D culture (in words): 0.03-1 μM
Procedure: Three standard of care compounds widely used against PrCa were added as controls; namely, the androgen receptor antagonist enzalutamide (MDV3100), the C17α-hydroxylase/C17,20-lyase inhibitor abiraterone (Zytiga), and the classic mitotic inhibitor paclitaxel. Treatments started at day 4, when well-differentiated round acini were established.
The live 3D cell cultures were then stained with reactive dyes Calcein AM to detect living, and ethidium homodimer to detect dead cells. Images (Fig 4A) were acquired with confocal microscope and image data were analyzed with the AMIDA software. The principles of morphometric image analysis are briefly outlined in S2 Fig.
Fig 4 Primary 3D screen. PC-3 cells were cultured in 3D Matrigel ECM for 4 days and treated for 6 days with 25 betulin derivatives (from 2D high throughput screens), DMSO/vehicle control, and three reference compounds. A) Representative maximum intensity projections of confocal microscope stack images for selected compound treatments at 300 nM concentration (5× objective, scale 100 μm). B) Three graphs showing the relative impact on three morphometric parameters for 7 betulin derivatives, DMSO control, and one control compound (paclitaxel). […] C) Hierarchical clustering was done using three morphological parameters derived from PC3 organoids: spheroid size (area), complexity and the number of dead cells. D) Wound healing curves of the two betulin derivatives 4 and 20, highlighting the 50% cut-off level (orange dashed line).
Next, statistical analyses were performed to interpret the complex image data (Fig 4B and 4C). For simplicity, we focused on only three, basic morphologic parameters from the multiparametric AMIDA readout (Fig 4B): 1) Area (indicating growth of organoids), 2) structural Complexity (as a measure of the intensity of invasion), and 3) Relative Area of dead cells within organoids (red signal as a measure of cytoxicity or apoptosis). Area (Size of organoids; Fig 4B, upper panel) was measured as the number of pixels within a segmented structure. […] Shape Complexity (Fig 4B, middle panel) was obtained using the structure size (area) and perimeter (number of border pixels). The more regular the shape of an organoid, the closer it is to a perfect circle, thus minimizing the perimeter relative to object size. […] Deviations from this average (residuals) were interpreted as a measure for the shape complexity of organoids. As a logical lower limit for this measure (represented by a perfect circle), we adjusted the intercept (height level) of the regression line to render all returned residuals as positive numbers.
All 3D cultures were done in growth factor-free Matrigel Basement-membrane Matrix (Corning Inc., New York, NY, USA) using 96-well Angiogenesis μ-plates (ibidi GmbH, Munich, Germany) as described before.[38] “Sandwich” assays in short: bottom wells of cooled Angiogenesis plates were filled with 10 μL 4 mg/mL Matrigel, centrifuged for 20 min 200 g and incubated at 37°C temperature for approximately 30–60 min or until the ECM had polymerized. 1,000–1,500 cells were mixed in 2 mg/mL ECM-medium, and 20 μL of cell suspension was added in each well. The plates were centrifuged for 10 min at 100 g, or until the cells had settled on top of the lower ECM. Finally, the outer wells and side reservoirs were filled with water for humidification, and the culture plates placed into the incubator for 3–4 h or overnight. The following day, 60 μL of cell culture medium were added; refreshed every third day by carefully aspirating the medium.

[5] = tested on: PC-3, LNCaP, LAPC-4, Ep156T; experiment: Primary and secondary 3D screens combined across the cell line panel; settings: cell lines other than PC-3, 3D, 300 nM or lower (except compound 15)
Procedure: Fig 5 Secondary 3D screens. Experimental betulin derivatives and control compounds were tested across a panel of prostate cancer lines (LNCaP, LAPC-4) and non-transformed, prostate epithelial cells (EP156T) in 3D culture. A) The dendrogram is based on three main morphological parameters and combines all data from primary and secondary 3D screens. Effective compound treatments are indicated in red and yellow, yellow being the most invasion-specific. B) Boxplots showing the impact of selected compounds on spheroid size (Area). Data scaling: as described in Fig 4 C) Effects of all betulin derivatives and control compounds on cell death (number of dead cells).
In order to assist functional categorization of our betulin derivatives, we combined all data into a single dendrogram, shown in Fig 5A. In addition, multiparametric representation of all experimental data as a single heatmap is highly informative (S5 Fig) and a potent way to illustrate the effects of compounds on growth, structural complexity and cell death across multiple cell lines. […] However, at lower concentrations, these compounds may act as potent and specific inhibitors of cell invasion and motility.
Supplementary file pone.0126111.s005.eps: S5 Fig Primary and secondary screens. […] The main read-outs (Area = Size, Complexity = Invasiveness, Red = Cell death) are shown in their own columns. Data scaling: DMSO control has been given a value 0 whereas paclitaxel control is valued -100 or 100 depending on the read-out. Color key is located in the upper right corner. (EPS) Click here for additional data file.
Supplementary file pone.0126111.s006.tif: S6 Fig Confocal images from primary and secondary betulin screens. Viable cells have been stained with calcein AM (green) and dead cells with ethidium homodimer-2 (red) (5× objective, maximum intensity projections, scale bar = 100 μm). (TIF) Click here for additional data file.

[6] = tested on: Ep156T cell line; experiment: Secondary 3D screen (spheroid size, complexity, cell death); settings: at the highest concentration
Description: as §1, §2, §3, §4, §5

Structure (SMILES) | organization of actin cytoskeleton in 3D spheroids [1] | efficacy in 3D LAPC-4 culture (dendrogram clusters) [3] | effects on the other cell lines at anti-invasive concentrations [5] | anti-invasive effects in 3D culture (in words) ([4]; 6 days treatment) | other results
CN[C@@H]1C[C@H]2O[C@@](C)([C@@H]1OC)n1c3ccccc3c3c4c(c5c6ccccc6n2c5c31)C(=O)NC4 [staurosporine, reference compound] | affected the cytoskeleton in a comparable fashion |  |  |  | 
CNC(=O)c1ccc(N2C(=S)N(c3ccc(C#N)c(C(F)(F)F)c3)C(=O)C2(C)C)cc1F [enzalutamide, reference compound] |  | efficacy of all positive controls |  |  | among the effective treatments in 3D LNCaP organoids [2]: among the effective treatments; effect on morphometric measures (area, complexity, dead cells) ([4]; paclitaxel at 30 and 100 nM): no noticeable effect
C=C(C)[C@@H]1CC[C@]2(C(=O)O)CC[C@]3(C)C(CCC4[C@@]5(C)Cc6nccnc6C(C)(C)C5CC[C@]43C)C12 (stereo partly drawn) [Compound 15] | effectively disrupted the organization of actin cytoskeleton |  | no noticeable effects on the other cell lines | most potent anti-invasive effects | concentration with strong anti-invasive effects in 3D ([4]; 6 days treatment): 1.0 µM; growth inhibition in 3D ([4]; at 1.0 μM): without any growth inhibition
CC(C)[C@@H]1CC[C@]2(C(=O)O)CC[C@]3(C)C(CCC4[C@@]5(C)CCC(=O)C(C)(C)C5CC[C@]43C)C12 (stereo partly drawn) [Compound 3] |  | most active | no noticeable effects on the other cell lines | one of the most potent anti-invasive, growth inhibitory agents | concentration at which anti-invasive effects are seen in 3D ([4]; 6 days treatment): ≤ 300 nM
C=C(C)[C@@H]1CC[C@]2(C(=O)O)CC[C@]3(C)C(CCC4[C@@]5(C)CCC(=O)C(C)(C)C5CC[C@]43C)C12 (stereo partly drawn) [Compound 2, betulonic acid] |  |  |  | did not show significant anti-invasive effects | response of Ep156T in 3D culture [6]: responded to betulonic acid

From publication PMC4428838, “Optimization of Invasion-Specific Effects of Betulin Derivatives on Prostate Cancer Cells through Lead Development” (PLoS ONE, 2015)
